Measured values as given in US20130219529A1, “PROBE FOR A HAIR CELL, AND LABELLING METHOD FOR A HAIR CELL USING THE PROBE FOR A HAIR CELL” (CANON KABUSHIKI KAISHA, priority 2008, published 2013).

Key:
[1] = tested on: neuromast (hair cell) of Zebrafish; assay: Staining intensity of neuromast at different concentrations of staining agent (fluorescence intensity per unit intake time); type: in vivo; conditions: 10, 30 and 100 ng/mL staining solutions, intensity/msec
Method: The compounds (43), (54), and (65) were selected as probes for a hair cell, and compared with FM1-43. Three kinds of staining solutions containing those staining agents were prepared at concentrations of 10 ng/mL, 30 ng/mL, and 100 ng/mL. Juveniles of (embryos on Day 7 after fertilization) of Zebrafish were stained in the same manner as that in Example 1. When a fluorescence image is acquired with a fluorescence stereomicroscope, the fluorescence intensity per unit intake time (intensity/msec) was calculated by changing an intake time (exposure time) and dividing the fluorescence intensity (Relative Fluorescence Unit, RFU) of a neuromast of the obtained fluorescence image by the intake time.

[2] = tested on: juvenile neuromast (hair cell) of Zebrafish; assay: Change in staining intensity of neuromast due to morpholino knockdown of target genes (SLC25A12, TRPC2); type: in vivo; conditions: for Ratio of staining intensity (KD/control): juveniles Day 7
Method: In order to knockdown a specific gene, a mixed solution containing a morpholino antisense oligonucleotide (MO) was prepared. MO was synthesized by using GeneTools, LLC (Philomath, Oreg.). A morpholino antisense oligonucleotide (atgMO) designed so that the translation from a start codon to a protein would be inhibited was dissolved in distilled water to prepare a MO mixed solution having the following composition.
A fertilized embryo within 1 hour after fertilization (before a second cleavage period) of Zebrafish was microinjected with the MO mixed solution. A capillary made of glass (inner diameter: 0.6 mm) having a sharp extremity obtained by extending and cutting a glass tube with a PC-10 puller (manufactured by Narishige Co., Ltd.) and grinding the cross section with a EG-400 grinder (manufactured by Narishige Co., Ltd.) was used for the microinjection. Feeding water and the fertilized embryo were placed into a 10-cm dish in which 1% agarose had been bedded, and the microinjection was performed under a stereoscopic microscope. During injection, one of a manual injector IM-9A (manufactured by Narishige Co., Ltd.) and an electrical microinjector IM-30 (manufactured by Narishige Co., Ltd.) was connected to the capillary made of glass, to thereby perform infusion with pressure. The infusion amount of MO was set to 1 to 10 ng per fertilized embryo.
Because the MO mixed solution is supplemented with a dye (0.005% phenol red), the success or failure of the infusion of the MO mixed solution may be confirmed with the naked eye. Further, because the MO mixed solution is supplemented with a fluorescent protein expression vector (EGFP), on Day 3 after infusion, the success or failure of the microinjection can be confirmed after the fertilized embryo has hatched (a sample in which a signal derived from the fluorescent protein was observed also retains MO in Zebrafish).
Juveniles (embryos on Day 7 after fertilization) of Zebrafish were stained in the same manner as that in Example 1, and a change in staining condition of the hair cell was measured.
The compound (54) was selected as the probe for a hair cell and compared with FM1-43. Further, SLC25A12 and TRPC2 were selected as target genes. The staining intensity of a juvenile neuromast having unknockdown genes was used as a control, and compared with the staining intensity of a juvenile neuromast in which each of the target genes has been knockdown by representing a fluorescence image obtained with a stereoscopic microscope in numerical values.

[3] = tested on: hair cell of Zebrafish; conditions: 5 μM chemical substance, 24 hours exposure, Zebrafish Day 7 after fertilization, stained with staining compound 54
Method: Zebrafish after exposure was washed with distilled water. The same operation as that in Example 1 was performed except that the staining compound (1) used in Example 1 was changed to a staining compound (54).

[4] = Excitation and fluorescence emission wavelength measured with fluorescence spectrophotometer; type: physicochemical; conditions: aqueous solution, 10 mg/mL DMSO solution diluted 500-fold with purified water
[5] = tested on: hair cell (neuromast) of Zebrafish; assay: Staining of hair cell (neuromast) of Zebrafish juveniles with probe, fluorescence stereomicroscope image visually evaluated; type: in vivo; conditions: dye concentration 250 μg/mL, 1 hour, Zebrafish juveniles Day 7 after fertilization

SMILES	Staining intensity of the hair cell compared with FM1-43 (FIG. 4) [1]	Excitation wavelength λex [4]	Fluorescence emission wavelength λem [4]	Fluorescence intensity [5]	other results
CC/N=c1\cc2oc3cc(NCC)c(C)cc3c(-c3ccccc3C(=O)OCC)c-2cc1C [Staining compound 54]	higher	–	–	–	Increase of staining properties by knockdown of SLC25A12 and TRPC2 genes ([2]; each of SLC25A12 and TRPC2 knockdown): about 2 fold; Ratio of staining intensity (KD/control) ([2]; target gene SLC25A12 knockdown): 2.06; Ratio of staining intensity (KD/control) ([2]; target gene TRPC2 knockdown): 2.18
NCCS(=O)(=O)O [Taurine, taurine]	–	–	–	–	Change in staining intensity [3]: No change
CC1(C)C(/C=C/C=C/C=C/C=C2\N(CCCCS(=O)(=O)O)c3ccc4ccccc4c3C2(C)C)=[N+](CCCCS(=O)(=O)[O-])c2ccc3ccccc3c21 [ICG, indocyanine green, reference compound]	–	784 nm	811 nm	No stained	Staining pattern [5]: No stained
CN1/C(=C\C=C\C2=[N+](C)c3ccccc3C2(C)C)C(C)(C)c2ccccc21 [Staining compound 43]	higher	–	–	–	–
CC[n+]1ccccc1C=Cc1ccc(N(C)C)cc1.[I-] [DASPEI, 2-(4-(dimethylamino)styryl)-N-ethylpyridinium iodide, reference compound]	–	461 nm	589 nm	+	–
